Source: patent publication US11155542B2, “Antimicrobial compounds, their use for the treatment of mammalian infections and a new metabolic mechanism” (priority 2016, dated 2021)
Converted amounts (≈) assume the structure as drawn.

Assays:
[1] = Chemical stability and solubility of Meisenheimer complexes and methylated derivatives; conditions: room temperature
Mtb H37Rv = assay: Resazurin microtiter assay (REMA), MIC Mtb H37Rv; type: cell-based; conditions: Mycobacterium tuberculosis
M. marinum = assay: MIC M. marinum; type: cell-based; conditions: Mycobacterium marinum
M. vaccae 10670 = assay: MIC M. vaccae 10670; type: cell-based; conditions: Mycolicibacterium vaccae
[2] = Cytotoxicity determination (HeLa); type: cell-based; conditions: human, HeLa cells (DSM ACC 57)
Protocol: The test items were dissolved in DMSO (typically 10 mg/mL, less soluble compounds lower). The solutions were diluted in RPMI 1640 medium. HeLa cells (DSM ACC 57) were grown in RPMI 1640 and harvested at the logarithmic growth phase after soft trypsinization using 0.25% trypsin in phosphate buffered saline (PBS) containing 0.02% ethylenediaminetetraacetic acid (EDTA). For each experiment, approximately 10,000 cells were seeded with 0.1 mL culture medium per well of the 96-well microplates. HeLa cells were pre-incubated for 48 h prior to the addition of the test compounds (final DMSO concentration ≤0.5%), which were carefully diluted on the subconfluent monolayers. Incubation was then conducted in a humidified atmosphere at 37° C. and 5% CO2. The adherent HeLa cells were fixed by glutaraldehyde and stained with a 0.05% solution of methylene blue for 10 min. After gently washing, the stain was eluted with 0.2 mL of 0.33 N HCl in the wells. The optical densities were measured at 660 nm in a SUNRISE microplate reader (TECAN).

Fresh blood assay, mice = type: in vitro ADME, C57BL/6J mice; conditions: in vitro incubation of fresh whole blood, HPLC-HRMS
Protocol: Mice: Fresh whole blood was collected from C57BL/6J mice after cervical dislocation under isoflurane anesthesia. Test item solutions were prepared in DMSO (5 mg/mL) and 0.4 μL of this solution was added to 400 μL fresh whole blood. The mixtures were incubated at 37° C. for 4 h and centrifuged at 4° C. and 3000 rpm to yield plasma. Plasma samples (50 μL) were mixed with acetonitrile (200 μL) on ice, vortexed, treated in an ultrasonic bath (3-5 s) and centrifuged at 4° C. and 9750 rpm. The supernatants were concentrated with a nitrogen stream to a residual volume of approximately 40 μL and analyzed by HPLC and LC-HRMS.

[3] = type: in vitro ADME; conditions: 5 µg/mL
Protocol: Human: A BTZ043 solution in DMSO (5 mg/mL) was prepared and 1 μL of this solution was added to 1 mL aliquots fresh whole blood. The mixtures were shaken at 37° C. for 2 h or 16 h and centrifuged at 4° C. and 3000 rpm to yield plasma. Plasma samples (60 μL) were mixed with acetonitrile (240 μL) on ice, vortexed, treated in an ultrasonic bath (3-5 s) and centrifuged at 4° C. and 9750 rpm. The supernatants were concentrated with a nitrogen stream to a residual volume of approximately 40 μL and analyzed by HPLC and LC-HRMS.

[4] = Minipig plasma samples after oral BTZ043; type: in vivo, minipigs; conditions: plasma samples after incubation at room temperature, in some samples
Protocol: In order to reveal potentially overlooked metabolites, additional metabolic studies of BTZ043 were performed that incorporated careful analysis of highly resolved HPLC chromatograms of plasma samples after different incubation times at room temperature. To ensure maximum stability of the chromatographic conditions, all solvents were carefully degassed through vacuum treatment and/or sparging with nitrogen. […] The concomitant drastic increase of the BTZ043 peak area (in some samples >100%) emphasized the significance of this transient metabolite. […] It was suspected that this metabolite could be formed through an enzymatic reduction of BTZ043 and that it is unstable towards oxygen from air.
Minipig plasma samples: Minipigs received oral doses of 360 mg/kg BTZ043. Blood was collected 2 h subsequent to administration of the compound formulation, immediately cooled on ice and centrifuged at 4° C. and 3000 rpm to yield plasma aliquots which were snap frozen and stored at −80° C. Plasma aliquots (50 μL) were mixed with acetonitrile (200 μL) on ice and under inert conditions (Don Whitley Scientific, anaerobic workstation), vortexed, treated in an ultrasonic bath (3-5 s) and centrifuged at 4° C. and 9750 rpm. The supernatants were concentrated with a nitrogen stream to a residual volume of approximately 40 μL and analyzed by HPLC and LC-HRMS.

[5] = Blank plasma from untreated animals spiked with BTZ043; type: in vitro ADME
From the text: It was therefore reasoned, that a possible explanation of this phenomenon would involve a yet unknown metabolite that was either thermally or oxidatively unstable when exposed to air.

Question: Which “Solubility and stability of the methylated derivatives” value [1] does the source give for COC1=C2CC(C(F)(F)F)=CC([N+](=O)[O-])=C2SC(N2CCC3(CC2)OC[C@H](C)O3)=N1 [Compound 6b] here?
Answer: The value was “sufficiently soluble and stable at room temperature”.

Question: For Cc1c(C(F)(F)F)cc2c(=O)nc(N3CCC4(CC3)OC[C@H](C)O4)sc2c1[N+](=O)[O-] [Example 9a, (S)-7-Methyl-2-(2-methyl-1,4-dioxa-8-azaspiro[4.5]decan-8-yl)-8-nitro-6-(trifluoromethyl)-4H-1,3-benzothiazin-4-one], which MIC (Mtb H37Rv) is on record?
Answer: The MIC was 500 ng/mL (≈ 1.12 µM).

Question: And the MIC (M. marinum)?
Answer: Its MIC is 250 ng/mL (≈ 0.561 µM).

Question: And the MIC (M. vaccae 10670)?
Answer: The MIC was 39 ng/mL (≈ 0.0876 µM).

Question: And the CC50 [2]?
Answer: The CC50 was 38900 ng/mL (≈ 87.3 µM).

Question: What about the “Formation of the Meisenheimer complex (reduced form) in the blood assay” value (Fresh blood assay, mice) of the same compound?
Answer: Its value is “formed only fairly detectable amounts of the Meisenheimer complex”.

Question: For Cc1c(C(F)(F)F)cc([N+](=O)[O-])c2sc(N3CCC4(CC3)OC[C@H](C)O4)nc(=O)c12 [Example 9b, (S)-5-Methyl-2-(2-methyl-1,4-dioxa-8-azaspiro[4.5]decan-8-yl)-8-nitro-6-(trifluoromethyl)-4H-1,3-benzothiazin-4-one], which MIC (Mtb H37Rv) is on record?
Answer: Its MIC is 8 ng/mL (≈ 0.018 µM).

Question: And the MIC (M. marinum)?
Answer: Its MIC is 8 ng/mL (≈ 0.018 µM).

Question: What about the MIC (M. vaccae 10670) of the same compound?
Answer: Its MIC is less than 1.2 ng/mL.

Question: What about the CC50 [2] of the same compound?
Answer: The CC50 was greater than 50000 ng/mL.

Question: What about the “Formation of the Meisenheimer complex (reduced form) in the blood assay” value (Fresh blood assay, mice) of the same compound?
Answer: The value was “could only be detected in trace amounts”.

Question: With COC1=C2C=C(C(F)(F)F)CC([N+](=O)[O-])=C2SC(N2CCC3(CC2)OC[C@H](C)O3)=N1 [Compound 6a] as the compound, how does the “Solubility and stability of the methylated derivatives” value [1] read?
Answer: The value was “sufficiently soluble and stable at room temperature”.

Question: With Cc1c(C(F)(F)F)cc([N+](=O)[O-])c2sc(N3CCN(CC4CCCCC4)CC3)nc(=O)c12 [Example 16, 2-(4-(Cyclohexylmethyl)piperazin-1-yl)-5-methyl-8-nitro-6-(trifluoromethyl)-4H-1,3-benzothiazin-4-one] as the compound, how does the MIC (Mtb H37Rv) read?
Answer: The MIC was 0.5 ng/mL (≈ 0.00106 µM).

Question: What about the MIC (M. marinum) of the same compound?
Answer: Its MIC is 1 ng/mL (≈ 0.00213 µM).

Question: And the MIC (M. vaccae 10670)?
Answer: Its MIC is less than 1.2 ng/mL.

Question: What about the CC50 [2] of the same compound?
Answer: Its CC50 is greater than 25000 ng/mL.

Question: Which MIC (Mtb H37Rv) does the source give for C[C@H]1COC2(CCN(c3nc(=O)c4cc(C(F)(F)F)cc([N+](=O)[O-])c4s3)CC2)O1 [BTZ043, (S)-2-(2-methyl-1,4-dioxa-8-azaspiro[4.5]decan-8-yl)-8-nitro-6-(trifluoro-methyl)-4H-1,3-benzothiazin-4-one, reference compound] here?
Answer: Its MIC is 1 ng/mL (≈ 0.00232 µM).

Question: And the MIC (M. marinum)?
Answer: The MIC was 4 ng/mL (≈ 0.00927 µM).

Question: And the MIC (M. vaccae 10670)?
Answer: Its MIC is less than 1.2 ng/mL.

Question: What about the CC50 [2] of the same compound?
Answer: The CC50 was greater than 50000 ng/mL.

Question: And the “Transformation of BTZ043 to 5b in fresh whole human blood” value [3]?
Answer: The value was “transformation of BTZ043 to 5b after several hours”.

Question: And the “Increase of the BTZ043 peak area in plasma samples over time” value [4]?
Answer: Its value is greater than 100%.

Question: What about the “Peak areas of BTZ043 in spiked blank plasma over time” value [5] of the same compound?
Answer: Its value is “remained completely unchanged over time”.
